{"source": "patent US9242966B2", "about": "“Phthalazines as potassium ion channel inhibitors” (BRISTOL-MYERS SQUIBB COMPANY, priority 2013, dated 2016)"}
{"test_system": "not listed separately", "experiment": "Rat PO PK with pH modulators (Pentagastrin or Famotidine pre-treatment)", "format": "in vivo", "settings": "not given", "excerpt": "(§1) Example 16 is a prodrug of Example 1."}
{"smiles": "O=P(O)(O)NS(=O)(=O)c1cncc(-c2nnc(NCc3ccccn3)c3c(-c4ccccc4)cccc23)c1", "note": "[Example 16, 5-(5-Phenyl-4-(pyridin-2-ylmethylamino)phthalazin-1-yl)pyridin-3-ylsulfonylphosphoramidic acid]", "Effect of pH modulators on PO PK (pH dependent absorption)": "mitigated the pH dependent absorption"}
{"test_system": "not listed separately", "experiment": "In vivo rat PK evaluation of pro-drug cleavage to parent", "settings": "all doses administered PO, parent = Example 1", "excerpt": "as §1"}
{"smiles": "O=P(O)(O)NS(=O)(=O)c1cncc(-c2nnc(NCc3ccccn3)c3c(-c4ccccc4)cccc23)c1", "note": "[Example 16, 5-(5-Phenyl-4-(pyridin-2-ylmethylamino)phthalazin-1-yl)pyridin-3-ylsulfonylphosphoramidic acid]", "Pro-drug cleavage to the respective parent compound": "Pro-drug cleavage to the respective parent compound was demonstrated"}
{"molecular_target": "T1, human KV 1.5 (Homo sapiens, UniProt P22460)", "T1 construct": "expressed in transfected cells; host or cells: mammalian L-929 cells (mouse fibroblast line)", "T1 sequence (P22460 whole entry)": "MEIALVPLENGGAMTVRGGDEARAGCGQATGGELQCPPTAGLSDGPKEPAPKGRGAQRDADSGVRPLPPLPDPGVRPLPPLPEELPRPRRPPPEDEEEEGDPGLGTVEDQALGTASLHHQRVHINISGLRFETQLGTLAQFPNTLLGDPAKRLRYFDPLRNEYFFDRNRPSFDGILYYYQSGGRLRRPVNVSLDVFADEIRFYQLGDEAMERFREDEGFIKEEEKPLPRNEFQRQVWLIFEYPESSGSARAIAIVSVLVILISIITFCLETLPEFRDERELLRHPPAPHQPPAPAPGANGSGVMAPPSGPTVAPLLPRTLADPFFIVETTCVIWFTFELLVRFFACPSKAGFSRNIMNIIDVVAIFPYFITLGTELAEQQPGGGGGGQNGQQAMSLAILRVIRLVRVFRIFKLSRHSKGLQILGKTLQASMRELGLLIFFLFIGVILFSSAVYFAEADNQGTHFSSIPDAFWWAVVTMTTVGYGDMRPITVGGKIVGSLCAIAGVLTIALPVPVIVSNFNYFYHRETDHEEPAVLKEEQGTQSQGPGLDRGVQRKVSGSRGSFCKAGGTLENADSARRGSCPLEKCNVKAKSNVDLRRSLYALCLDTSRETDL", "experiment": "Block of IKur current in patch clamped L-929 cells expressing human Kv1.5", "format": "cell-based", "settings": "L929, 0.3 μM; patch clamped mammalian L-929 cells stably expressing human Kv1.5 (IKur); read-out: KV1_5% Inh L929 @0.3 μM", "excerpt": "1. Synders, D. J.; et al., “A rapidly activating and slowly inactivating potassium channel cloned from human heart: functional analysis after stable mammalian cell culture expression”, J. Gen. Physiol., 101:513-543 (1993). […]", "units": {"inhibition at 0.3 µM": "%"}}
{"smiles": "C[C@H](Nc1nnc(-c2cncc(S(N)(=O)=O)c2)c2cccc(-c3ccccc3)c12)c1ccccc1", "note": "[Example 43, (S)-5-(5-Phenyl-4-((1-phenylethyl)amino)phthalazin-1-yl)pyridine-3-sulfonamide]", "inhibition at 0.3 µM": 86.8}
{"smiles": "O=C(NCc1ccc(OC(F)(F)F)cc1)c1cncc(-c2nnc(NCc3ccccn3)c3c(-c4ccccc4)cccc23)c1", "note": "[Example 44, 5-(5-Phenyl-4-((pyridin-2-ylmethyl)amino)phthalazin-1 yl)-N-(4-(trifluoromethoxy)benzyl)nicotinamide]", "inhibition at 0.3 µM": 96.5}
{"smiles": "Cc1cnc(CNC(=O)c2cncc(-c3nnc(NCc4ccccn4)c4c(-c5ccccc5)cccc34)c2)cn1", "note": "[Example 45, N-((5-Methylpyrazin-2-yl)methyl)-5-(5-phenyl-4-((pyridin-2-ylmelhyl)amino)phthalazin-1-yl) nicotinamide]", "inhibition at 0.3 µM": 75.6}
{"smiles": "COCCNC(=O)c1cncc(-c2nnc(NCc3ccccn3)c3c(-c4ccccc4)cccc23)c1", "note": "[Example 46, N-(2-Methoxyethyl)-5-(5-phenyl-4-((pyridin-2-ylmethyl)amino)phthalazin-1-yl)nicotinamide]", "inhibition at 0.3 µM": 51.1}
{"smiles": "CC(C)(C)CCNC(=O)c1cncc(-c2nnc(NCc3ccccn3)c3c(-c4ccccc4)cccc23)c1", "note": "[Example 47, N-(3,3-Dimcthylbutyl)-5-(5-phenyl-4-((pyridin-2-ylmethyl)amino)phthalazin-1-yl)nicotinamide]", "inhibition at 0.3 µM": 96.4}
{"smiles": "CC(C)OCCNC(=O)c1cncc(-c2nnc(NCc3ccccn3)c3c(-c4ccccc4)cccc23)c1", "note": "[Example 48, N-(2-Isopropoxyethyl)-5-(5-phenyl-4-((pyridin-2-ylmethyl)amino)phthalazin-1-yl)nicotinamide]", "inhibition at 0.3 µM": 71.1}
{"smiles": "O=C(N[C@H]1CCC[C@@H]1OCc1ccccc1)c1cncc(-c2nnc(NCc3ccccn3)c3c(-c4ccccc4)cccc23)c1", "note": "[Example 49]", "inhibition at 0.3 µM": 93.9}
{"smiles": "O=C(NCCc1ccccc1F)c1cncc(-c2nnc(NCc3ccccn3)c3c(-c4ccccc4)cccc23)c1", "note": "[Example 50, N-(2-Fluorophenethyl)-5-(5-phenyl-4-((pyridin-2-ylmethyl)amino)phthalazin-1-yl)nicotinamide]", "inhibition at 0.3 µM": 98.6}
